Laboratory results published in ChEMBL document CHEMBL3243956, “Plant antitumor agents. 17. Structural requirements for antineoplastic activity in quassinoids” (1978).

Legend:
Assay type in all cases: functional
P388 [1] = test: Antileukemic activity against mouse P388 cells allografted in mouse assessed as increase in host survival at 8 mg/kg relative to control
P388 [2] = test: Antileukemic activity against mouse P388 cells allografted in mouse assessed as increase in host survival at 1 mg/kg relative to control
P388 [3] = test: Antileukemic activity against mouse P388 cells allografted in mouse assessed as increase in host survival at 4 mg/kg relative to control
P388 [4] = test: Antileukemic activity against mouse P388 cells allografted in mouse assessed as increase in host survival at 2 mg/kg relative to control
P388 [5] = test: Antileukemic activity against mouse P388 cells allografted in mouse assessed as increase in host survival at 0.5 mg/kg relative to control
P388 [6] = test: Antileukemic activity against mouse P388 cells allografted in mouse assessed as increase in host survival at 0.25 mg/kg relative to control
P388 [7] = test: Antileukemic activity against mouse P388 cells allografted in mouse assessed as increase in host survival at 10 mg/kg relative to control
P388 [8] = test: Antileukemic activity against mouse P388 cells allografted in mouse assessed as increase in host survival at 5 mg/kg relative to control
P388 [9] = test: Antileukemic activity against mouse P388 cells allografted in mouse assessed as increase in host survival at 2.5 mg/kg relative to control
P388 [10] = test: Antileukemic activity against mouse P388 cells allografted in mouse assessed as increase in host survival at 1.25 mg/kg relative to control

Row | SMILES | T/C (P388 [1]) [%] | T/C (P388 [2]) [%] | T/C (P388 [3]) [%] | T/C (P388 [4]) [%] | T/C (P388 [5]) [%] | T/C (P388 [6]) [%] | T/C (P388 [7]) [%] | T/C (P388 [8]) [%] | T/C (P388 [9]) [%] | T/C (P388 [10]) [%]
1 | CC(=O)O[C@@H]1C(=O)C=C(C)[C@@H]2[C@@H](OC(=O)C=C(C)C)[C@H]3OC(=O)C[C@H]4[C@@H](C)[C@@H](O)[C@]5(O)OC[C@]34[C@H]5[C@@]12C | 142 | 121 | 142 | 132 | 118 | – | – | – | – | –
2 | CC(=O)OC[C@]12[C@@H]3OC(=O)C[C@H]1[C@@H](C)[C@@H](OC(C)=O)C(=O)[C@@H]2[C@@]1(C)[C@H](OC(C)=O)C(=O)C=C(C)[C@@H]1[C@H]3OC(=O)C=C(C)C | 102 | 97 | 101 | 102 | 100 | – | – | – | – | –
3 | CC(C)=CC(=O)O[C@@H]1[C@H]2C(C)=CC(=O)[C@H](O)[C@]2(C)[C@H]2[C@]3(O)OC[C@@]24[C@@H]1OC(=O)C[C@H]4[C@@H](C)[C@H]3O | – | 198 | – | 191 | 161 | 145 | – | – | – | –
4 | CC(=O)O[C@@H]1[C@H](C)[C@@H]2CC(=O)O[C@@H]3[C@H](OC(=O)C=C(C)C)[C@H]4C(C)=CC(=O)[C@@H](OC(C)=O)[C@]4(C)[C@H]4[C@@]1(O)OC[C@@]342 | – | – | – | – | – | – | 107 | 107 | 107 | 104
